According to PMC11002876, “KcsA-Kv1.x chimeras with complete ligand-binding sites provide improved predictivity for screening selective Kv1.x blockers” (The Journal of Biological Chemistry, 2024):
“Also recorded” adds a separate entry of the source. Where a SMILES comes first, the peptide text is derived from it.

What was measured:
[1] = tested on: human Kv1.1 channel (hKv1.1); test: Whole-cell patch-clamp, hKv1.1-expressing CHO cells; format: cell-based; settings: see Table 1 and Fig. S3; 1 nM peptide in patch-clamp
Procedure: Chinese Hamster Ovarian cells were grown in Dulbecco’s modified Eagle’s medium–high glucose supplemented with 10% FBS, 2 mM L-glutamine, 100 U/ml penicillin-g, and 100 μg/ml streptomycin (Invitrogen) at 37 °C in a 5% CO2 and 95% air humidified atmosphere. Cells were passaged twice per week following a 5 min incubation in PBS containing 0.2 g/L EDTA. Chinese Hamster Ovarian cells were transiently transfected with plasmids encoding human Kv1.1 (hKCNA1 gene) and human Kv1.2 (hKCNA2 gene) in pCMV6-AC-GFP plasmid (RG211000 and RC222200, OriGene Technologies) using Lipofectamine 2000 (Invitrogen) following the manufacturer’s protocol, then cultured under standard conditions. Transfected cells were washed twice with 2 ml of extracellular solution (ECS, see below) and replated onto 35 mm polystyrene cell culture dishes (Cellstar, Greiner Bio-One) before the patch-clamp experiments. […] In general, currents were recorded 24 to 36 h after transfection.
Conventional whole-cell patch-clamp electrophysiology was used to record ionic currents. Micropipettes were pulled from GC150F-7.5 borosilicate capillaries (Harvard Apparatus) with tip diameters between 0.5 and 1 μm resulting in a tip resistance of 2 to 8 MΩ in the extracellular (bath) solution. […]
Native peptides, phage-expressed peptides, and positive controls used for them were dissolved in ECS supplemented with 0.1 mg/ml bovine serum albumin (BSA; Sigma-Aldrich Hungary). Bath perfusion around the measured cell with different extracellular solutions was achieved using a gravity flow micro perfusion system using a rate of 0.5 ml/min. […]
Voltage protocols: For measurement of Kv1.1 to 1.3 currents, voltage steps to +50 mV were applied from a holding potential of −120 mV and the peak current was measured every 15 s. […] The remaining current fraction at a given molar concentration was calculated as I/I0, where I0 is the peak current in the absence and I is the peak current at equilibrium block or […] after ∼2 min perfusion by the investigated peptide/phage.

[2] = molecular target: T1, KcsA-Kv1.2 T-only chimera (Streptomyces lividans, UniProt P0A334, R52A/G53D/A54E/P55R/G56E/A57S/L59F/I60P/T61S/Y62I/R64D); test: Phage-binding competition assay, KcsA-Kv1.2 T-only; design: species or system human Kv1.2 turret in Streptomyces lividans KcsA; settings: for binding to KcsA-Kv1.2 T-only, in words: HgTx1-phage competition, Fig. 7E (ligand-binding pattern); for Rank, T-only chimera (Kv1.2): rank by competition IC50 among MTX, ShK, KTX1
T1 sequence (P0A334 1-160 R52A/G53D/A54E/P55R/G56E/A57S/L59F/I60P/T61S/Y62I/R64D): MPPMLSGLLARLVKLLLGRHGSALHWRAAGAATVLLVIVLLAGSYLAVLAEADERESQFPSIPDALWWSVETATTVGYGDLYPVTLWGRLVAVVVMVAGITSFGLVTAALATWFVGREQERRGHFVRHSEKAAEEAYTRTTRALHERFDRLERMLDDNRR
Procedure: Phage stock solutions were diluted to working concentration with phage resuspension buffer supplemented with 2 mM DDM. For protein immobilization, the following amounts were used in a final volume of 50 μl/well: wt KcsA, 0.1 μg; KcsA-Kv1.1 T-only, 0.005 μg; KcsA-Kv1.1 T+F, 0.02 μg; KcsA-Kv1.2 T-only, 0.01 μg; KcsA-Kv1.2 T+F, 0.1 μg; KcsA-Kv1.3 T-only, 0.01 μg; and KcsA-Kv1.3 T+F, 0.1 μg. Protein samples were diluted in 50 μl of storage buffer (20 mM Tris pH8.0, 300 mM KCl, 2 mM DDM) and were added to the designated wells of a Pierce Clear, 96-Well Nickel Coated Plate (15442, Thermo Fisher Scientific), then incubated for 1 h at room temperature on a horizontal shaker at 130 rpm. The plate was blocked for 1 h at room temperature with 180 μl/well TBS-BSA supplemented with 1 mM DDM. Following blocking, the wells were washed 4× with washing buffer (300 μl TBS-Tween, 0.1% v/v) using a Wellwash Versa microplate washer (Thermo Fisher Scientific); then 50 μl phage solution (in TBS-BSA-Tween, 0.1% v/v, 2 mM DDM) at determined phage concentration was added to the wells and incubated for 1 h at room temperature on a horizontal shaker. The plate was washed 4× with washing buffer, then 50 μl anti-M13 IgG HRP (MA5-36125, Invitrogen) diluted to 1:2500 in TBS-Tween (0.1% v/v) was added to the wells and incubated for 1 h at room temperature. The plate was washed again 4× with 300 μl/well washing buffer. Finally, 50 μl/well 1-Step Ultra TMB-ELISA solution (34028, Thermo Fisher Scientific) was added to the wells, and the developing signal was stopped with 50 μl 1M HCl after 5 to 10 min. The light absorbance signal was read at 450 nm with Byonoy absorbance 96 plate reader (Byonoy GmbH).
For protein immobilization, the following amounts were used in a final volume of 50 μl/well: KcsA-Kv1.1 T-only, 0.005 μg; KcsA-Kv1.1 T+F, 0.01 μg; KcsA-Kv1.2 T-only, 0.025 μg; KcsA-Kv1.2 T+F, 0.0125 μg; KcsA-Kv1.3 T-only, 0.01 μg; and KcsA-Kv1.3 T+F, 0.1 μg. Protein samples were diluted in storage buffer. Binding of given concentrations of relevant ligand-displaying phages quantified by light absorbance ([…]) were investigated in a similar manner as in phage ELISA-binding assay, while different concentrations of competing toxin test substances were applied simultaneously. The results were converted to percent inhibitions (percent displacement) of the indicator phage binding, and relative affinities of the tested toxins were assessed by plotting percent displacements against log concentrations and determining half maximal inhibitory concentrations (IC50) by sigmoidal curve fitting using “Sigmoidal dose-response (variable slope) with least squares method” algorithm in GraphPad Prism 8 using the following equation: Y=Bottom+Top−Bottom/1+10^(LogEC50−×)⋅HillSlope

SMILES	potency ranking, Kv1.1 [1]	binding to KcsA-Kv1.2 T-only, in words [2]	Rank, T-only chimera (Kv1.2) [2]	binding to KcsA-Kv1.2 T-only, in words ([2]; listed as MTX1)
CC[C@H](C)[C@H](NC(=O)[C@H](CCC(=O)O)NC(=O)[C@@H](NC(=O)CN)C(C)C)C(=O)N[C@@H](CC(N)=O)C(=O)N[C@H](C(=O)N[C@@H](CCCCN)C(=O)N[C@H]1CSSC[C@@H]2NC(=O)[C@H](CCCCN)NC(=O)CNC(=O)[C@H](Cc3ccccc3)NC(=O)[C@H](CCCNC(=N)N)NC(=O)[C@H](CCSC)NC(=O)CNC(=O)[C@H](C)NC(=O)[C@H](CC(=O)O)NC(=O)[C@H](CCCCN)NC(=O)[C@@H]3CSSC[C@@H](C(=O)N[C@H](C(=O)N4CCC[C@H]4C(=O)N[C@@H](CCCCN)C(=O)O)[C@@H](C)O)NC(=O)[C@H](Cc4c[nH]cn4)NC(=O)[C@H](CSSC[C@H](NC(=O)[C@H](CCC(N)=O)NC(=O)[C@@H]4CCCN4C(=O)[C@H](CO)NC(=O)CNC(=O)[C@H](CO)NC1=O)C(=O)N[C@@H](CC(C)C)C(=O)N[C@@H](CCCCN)C(=O)N1CCC[C@H]1C(=O)N3)NC(=O)[C@H](CCCCN)NC(=O)[C@H](CCCNC(=N)N)NC(=O)[C@H](CC(N)=O)NC(=O)[C@H](CCSC)NC2=O)C(C)C [KTX1, Kaliotoxin-1]	ShK > KTX1 >> MTX; also recorded: ShK > KTX1 > MTX	inconsistent with their published channel blocking potencies; also recorded: ShK > KTX1 > MTX	2	
CC[C@H](C)[C@@H]1NC(=O)[C@@H]2CSSC[C@H](NC(=O)[C@H](CO)NC(=O)[C@@H](N)C(C)C)C(=O)N[C@@H]([C@@H](C)O)C(=O)NCC(=O)N[C@@H](CO)C(=O)N[C@@H](CCCCN)C(=O)N[C@@H](CC(=O)O)C(=O)N[C@@H](CSSC[C@@H](C(=O)N[C@@H](CCCCN)C(=O)N[C@H]3CSSC[C@@H](C(N)=O)NC(=O)CNC(=O)[C@H](Cc4ccc(O)cc4)NC3=O)NC(=O)[C@H](CO)NC(=O)[C@H](CCCCN)NC(=O)[C@H](CC(N)=O)NC1=O)C(=O)N[C@@H](Cc1ccc(O)cc1)C(=O)N[C@@H](C)C(=O)N1CCC[C@H]1C(=O)N[C@H]1CSSC[C@H](NC(=O)CNC(=O)[C@H]([C@@H](C)O)NC(=O)[C@H](CCC(N)=O)NC(=O)[C@H](CCCCN)NC(=O)[C@H](CCCNC(=N)N)NC1=O)C(=O)N1CCC[C@H]1C(=O)N[C@@H](CC(N)=O)C(=O)N[C@@H](C)C(=O)N[C@@H](CCCCN)C(=O)N2 [MTX, Maurotoxin] (HELM PEPTIDE1{V.S.C.T.G.S.K.D.C.Y.A.P.C.R.K.Q.T.G.C.P.N.A.K.C.I.N.K.S.C.K.C.Y.G.C.[am]}$PEPTIDE1,PEPTIDE1,3:R3-24:R3|PEPTIDE1,PEPTIDE1,9:R3-29:R3|PEPTIDE1,PEPTIDE1,13:R3-19:R3|PEPTIDE1,PEPTIDE1,31:R3-34:R3$$$V2.0; N-terminus and C-terminus assumed)	ShK > KTX1 >> MTX; also recorded: ShK > KTX1 > MTX	ShK > KTX1 > MTX; also recorded: completely lost its affinity	3	negligible binding
CC[C@H](C)[C@@H]1NC(=O)[C@@H](NC(=O)[C@H](CO)NC(=O)[C@@H](N)CCCNC(=N)N)CSSC[C@@H](C(=O)O)NC(=O)[C@H]([C@@H](C)O)NC(=O)CNC(=O)[C@@H]2CSSC[C@@H]3NC(=O)[C@H](CCC(N)=O)NC(=O)[C@H](Cc4ccccc4)NC(=O)[C@H](C)NC(=O)[C@H]([C@@H](C)O)NC(=O)[C@H](CSSC[C@H](NC(=O)[C@H](Cc4ccccc4)NC(=O)[C@H](CO)NC(=O)[C@H](CC(C)C)NC(=O)[C@H](CCCNC(=N)N)NC(=O)[C@H](Cc4ccc(O)cc4)NC(=O)[C@H](CCCCN)NC(=O)[C@H](CCSC)NC(=O)[C@H](CO)NC(=O)[C@H](Cc4c[nH]cn4)NC(=O)[C@H](CCCCN)NC3=O)C(=O)N[C@@H](CCCNC(=N)N)C(=O)N[C@@H](CCCCN)C(=O)N[C@@H]([C@@H](C)O)C(=O)N2)NC(=O)[C@H](CCCNC(=N)N)NC(=O)[C@H](CO)NC(=O)[C@H](CCCCN)NC(=O)[C@@H]2CCCN2C(=O)[C@H]([C@@H](C)CC)NC(=O)[C@H]([C@@H](C)O)NC(=O)[C@H](CC(=O)O)NC1=O [ShK, Stichodactyla toxin]	ShK > KTX1 >> MTX; also recorded: ShK > KTX1 > MTX	inconsistent with their published channel blocking potencies; also recorded: ShK > KTX1 > MTX	1	
